In patent US12692262B2, “Substituted ureas as orexin receptor agonists” (Merck Sharp & Dohme LLC, priority 2020, dated 2026):
pEC50: −log10 of the molar value.

Target: T1, human OX2R (Homo sapiens, UniProt O43614)
T1 construct: expressed in transfected cells; host or cells: CHO (Chinese hamster ovary) cells grown under G418 selection
T1 sequence (O43614 1-444): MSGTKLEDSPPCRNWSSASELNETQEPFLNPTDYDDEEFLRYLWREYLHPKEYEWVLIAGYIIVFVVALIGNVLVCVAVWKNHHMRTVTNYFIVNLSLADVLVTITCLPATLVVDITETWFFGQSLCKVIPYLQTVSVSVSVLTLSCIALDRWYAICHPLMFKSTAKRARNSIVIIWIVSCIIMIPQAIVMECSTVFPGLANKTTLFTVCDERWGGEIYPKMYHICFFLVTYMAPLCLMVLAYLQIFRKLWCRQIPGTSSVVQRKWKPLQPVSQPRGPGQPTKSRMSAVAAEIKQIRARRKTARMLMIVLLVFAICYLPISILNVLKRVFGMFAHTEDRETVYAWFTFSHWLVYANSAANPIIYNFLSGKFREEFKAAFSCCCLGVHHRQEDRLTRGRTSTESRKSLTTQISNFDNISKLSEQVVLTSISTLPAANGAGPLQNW
Assay: IPOne (IP-1 accumulation) assay in CHO cells expressing human OX2R
Type: cell-based
Details: for pEC50: CHO cells expressing human OX2R, IP-One assay, 2 h incubation, four parameter logistic fit, read-out: OX2R Potency, EC50; for % of maximum agonist effect (relative to Orexin A): percent effect vs mean max effect of a reference compound at 1 uM (100% activity vs Orexin A), human OX2R
Method in brief: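 CHO cells stably expressing human OX2R, grown in Iscove's modified DMEM with 10% FBS; agonist-driven IP-1 accumulation via the Gαq pathway measured by HTRF (D2/AB-cryptate detection after lysis). EC50 taken as the inflection point of a four-parameter logistic fit.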

In the case of CCN(C(=O)N[C@@H](CCC(F)(F)F)C(F)(F)F)C(C)c1cc(-c2cn3ccnc3c(OC)n2)ncn1 (stereo partly drawn) [Example 13-2, 1-ethyl-3-((S)-1,1,1,5,5,5-hexafluoropentan-2-yl)-1-(1-(6-(8-methoxyimidazo[1,2-a]pyrazin-6-yl)pyrimidin-4-yl)ethyl)urea], the pEC50 was 7.77 and the “% of maximum agonist effect (relative to Orexin A)” value was 101.4%.

CCC(NC(=O)N(CC)[C@@H](c1cc(-c2cn3cc(C)nc3c(OC)n2)c(OC)cn1)C(F)(F)F)C1CC1C(F)(F)F (stereo partly drawn) [Example 6-6, 1-ethyl-1-((S)-2,2,2-trifluoro-1-(5-methoxy-4-(8-methoxy-2-methylimidazo[1,2-a]pyrazin-6-yl)pyridin-2-yl)ethyl)-3-(1-(2-(trifluoromethyl)cyclopropyl)propyl)urea] was tested, and the pEC50 was 7.15 and the “% of maximum agonist effect (relative to Orexin A)” value was 101.5%.

CCN(C(=O)N[C@@H](CCC(F)(F)F)C(F)(F)F)[C@@H](c1cc(-c2cn3ccnc3c(OC)n2)c(OC)cn1)C(F)(F)F [Example 10-1, 1-ethyl-3-((S)-1,1,1,5,5,5-hexafluoropentan-2-yl)-1-((S)-2,2,2-trifluoro-1-(5-methoxy-4-(8-methoxyimidazo[1,2-a]pyrazin-6-yl)pyridin-2-yl)ethyl)urea] was tested, and the pEC50 was 8.96 and the “% of maximum agonist effect (relative to Orexin A)” value was 100.4%.

With COc1nc(-c2cccc(C(C)N(CC(F)F)C(=O)N[C@@H](CCC(F)(F)F)C(F)(F)F)c2)cn2ccnc12 (stereo partly drawn) [Example 2-61, 1-(2,2-difluoroethyl)-3-((S)-1,1,1,5,5,5-hexafluoropentan-2-yl)-1-(1-(3-(8-methoxyimidazo[1,2-a]pyrazin-6-yl)phenyl)ethyl)urea] the pEC50 was 8.24 and the “% of maximum agonist effect (relative to Orexin A)” value was 99.5%.

In the case of CCN(C(=O)NC(CC(=O)N(C)C)C(F)(F)F)[C@H](C)c1cccc(-c2cn3ccnc3c(OC)n2)c1 (single isomer, unassigned) [Example 24], the pEC50 was 6.84 and the “% of maximum agonist effect (relative to Orexin A)” value was 89.1%.

CCN(C(=O)N[C@@H](C)C(F)(F)F)C(c1cnc(OC)c(-c2cn3ccnc3c(OC)n2)c1)C(F)(F)F (stereo partly drawn) [Example 2-62, 1-ethyl-1-(2,2,2-trifluoro-1-(6-methoxy-5-(8-methoxyimidazo[1,2-a]pyrazin-6-yl)pyridin-3-yl)ethyl)-3-((S)-1,1,1-trifluoropropan-2-yl)urea] was tested, and the pEC50 was 7.88 and the “% of maximum agonist effect (relative to Orexin A)” value was 95.6%.
